*1 amine or outer side, *2 acyl side, *3 side chain or, on linkers, in order; H or OH if unused. Where a SMILES comes first, the peptide text is derived from it. Bridges are numbered along the chain shown (N, C = ends). [ ]: non-standard residue; d: D form. hPhe(3,5-F2-4-CF3) = N[C@@H](CCc1cc(F)c(C(F)(F)F)c(F)c1)C(=O)O; NPrPhe(4-CF3) = CCCN[C@@H](Cc1ccc(C(F)(F)F)cc1)C(=O)O; NMeGly(cPent) = CN[C@H](C(=O)O)C1CCCC1; X13 = CCC[C@](C)(N[*:1])C(=O)[*:2]; NMeD = CN[C@@H](CC(=O)O)C(=O)O; NMeL = CN[C@@H](CC(C)C)C(=O)O; Sar = CNCC(=O)O
Assays:
[1] = target: GDP-bound HRAS wild-type protein (Homo sapiens, UniProt P01112); experiment: Binding to HRAS by surface plasmon resonance (SPR), Single Cycle Kinetics
[2] = target: GDP-bound NRAS wild-type protein (Homo sapiens, UniProt P01111); experiment: Binding to NRAS by surface plasmon resonance (SPR), Single Cycle Kinetics
[3] = SPR, GDP-bound HRAS wild-type vs GDP-bound KRAS wild-type
[4] = SPR, GDP-bound NRAS wild-type vs GDP-bound KRAS wild-type
[5] = KD ratio, GDP-bound HRAS wild-type vs GDP-bound KRAS wild-type, SPR
[6] = KD ratio, GDP-bound NRAS wild-type vs GDP-bound KRAS wild-type, SPR
[7] = KD ratio HRAS/KRAS, class symbols
[8] = KD ratio NRAS/KRAS, class symbols

GDP-bound NRAS wild-type protein, sequence (P01111 whole entry): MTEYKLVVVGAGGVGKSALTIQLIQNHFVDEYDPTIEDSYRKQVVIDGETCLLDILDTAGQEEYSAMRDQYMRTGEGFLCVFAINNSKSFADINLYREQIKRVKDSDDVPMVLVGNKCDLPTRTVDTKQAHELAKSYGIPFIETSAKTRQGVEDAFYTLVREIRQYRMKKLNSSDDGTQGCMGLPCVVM
GDP-bound HRAS wild-type protein, sequence (P01112 whole entry): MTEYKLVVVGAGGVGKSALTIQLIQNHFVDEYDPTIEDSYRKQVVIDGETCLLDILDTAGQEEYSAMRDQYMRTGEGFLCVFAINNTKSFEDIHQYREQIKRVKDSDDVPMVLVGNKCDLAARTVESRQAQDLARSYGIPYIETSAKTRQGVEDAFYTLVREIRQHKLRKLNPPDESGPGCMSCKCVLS

Compound: CCCOC[C@H]1C(=O)N[C@@H]([C@@H](C)CC)C(=O)N(C)CC(=O)N(C)[C@H]2C/C=C\CCN(C2=O)[C@@H](Cc2ccc(C)cc2)C(=O)N(C)CC(=O)N[C@@H](CCc2ccc(C(F)(F)F)c(Cl)c2)C(=O)N2C[C@@H](C)C[C@H]2C(=O)NC2(CC(C)(C)C2)C(=O)N(C)[C@@H](C2CCCC2)C(=O)N(C)[C@H](C(=O)N(C)C)CC(=O)N1C [PP2453]
- HRAS/KRAS (ratio of KD value with respect to HRAS to KD value with respect to KRAS) [1, 3]: A (a compound having 10 or more and less than 20 is denoted as A)
- NRAS/KRAS (ratio of KD value with respect to NRAS to KD value with respect to KRAS) [2, 4]: A (a compound having 10 or more and less than 20 is denoted as A)

Compound: CCO[C@@H]1C[C@H]2C(=O)NC3(CCC3)C(=O)N(C)[C@@H](C3CCCC3)C(=O)N(C)[C@H](C(=O)N3CCCC3)CC(=O)N(C)[C@@H](CC)C(=O)N[C@@H]([C@@H](C)CC)C(=O)N(C)CC(=O)N(C)[C@H]3C/C=C\CCN(C3=O)[C@@H](Cc3ccc(C(F)(F)F)cc3)C(=O)N(C)CC(=O)N[C@@H](CCc3cc(F)c(C(F)(F)F)c(F)c3)C(=O)N2C1 [PP1090]
- HRAS/KRAS (ratio of KD value with respect to HRAS to KD value with respect to KRAS) [1, 5]: A (a compound having 10 or more and less than 20 is denoted as A)
- NRAS/KRAS (ratio of KD value with respect to NRAS to KD value with respect to KRAS) [2, 6]: AA (a compound having 20 or more is denoted as AA)

Compound: CCC[C@H]1C(=O)N[C@@H]([C@@H](C)CC)C(=O)N(C)CC(=O)N(C)[C@H]2C/C=C\CCN(C2=O)[C@@H](Cc2ccc(C)cc2)C(=O)N(C)CC(=O)N[C@@H](CCc2ccc3c(C)c(C)n(C)c3c2)C(=O)N2C[C@H](OCC)C[C@H]2C(=O)NC2(CC(C)(C)C2)C(=O)N(C)[C@@H](C2CCCC2)C(=O)N(C)[C@H](C(=O)N(C)C)CC(=O)N1C [PP2895]
- HRAS/KRAS (ratio of KD value with respect to GDP-bound HRAS wild-type protein to KD value with respect to KRAS) [1, 7]: A (a compound having 10 or more and less than 20 is denoted as A)
- NRAS/KRAS (ratio of KD value with respect to GDP-bound NRAS wild-type protein to KD value with respect to KRAS) [2, 8]: A (a compound having 10 or more and less than 20 is denoted as A)

Compound: CCOC[C@H]1C(=O)N[C@@H]([C@@H](C)CC)C(=O)N(C)CC(=O)N(C)[C@H]2C/C=C\CCN(C2=O)[C@@H](Cc2ccc(C)cc2)C(=O)N(C)CC(=O)N[C@@H](CCc2ccc(C(F)(F)F)c(OC)c2)C(=O)N2C[C@@H](C)C[C@H]2C(=O)NC2(CC(C)(C)C2)C(=O)N(C)[C@@H](C2CCCC2)C(=O)N(C)[C@H](C(=O)N(CC)CC)CC(=O)N1C [PP2405]
- HRAS/KRAS (ratio of KD value with respect to HRAS to KD value with respect to KRAS) [1, 3]: A (a compound having 10 or more and less than 20 is denoted as A)
- NRAS/KRAS (ratio of KD value with respect to NRAS to KD value with respect to KRAS) [2, 4]: A (a compound having 10 or more and less than 20 is denoted as A)

Compound: CCO[C@@H]1C[C@H]2C(=O)NC3(CCC3)C(=O)N(C)[C@@H](C3CCCC3)C(=O)N(C)[C@H](C(=O)N(C)C)CC(=O)N(C)[C@@H](COC)C(=O)N[C@@H]([C@@H](C)CC)C(=O)N3CC[C@H]3C(=O)N(C)[C@H]3CCCCCN(C3=O)[C@@H](Cc3ccc(C(F)(F)F)cc3)C(=O)N(C)CC(=O)N[C@@H](CCc3cc(F)c(C(F)(F)F)c(F)c3)C(=O)N2C1 [PP0864]
- HRAS/KRAS (ratio of KD value with respect to HRAS to KD value with respect to KRAS) [1, 5]: B (a compound having 3 or more and less than 10 is denoted as B)
- NRAS/KRAS (ratio of KD value with respect to NRAS to KD value with respect to KRAS) [2, 6]: B (a compound having 3 or more and less than 10 is denoted as B)

Compound: CCC[C@H]1C(=O)N[C@@H]([C@@H](C)CC)C(=O)N(C)CC(=O)N(C)[C@H]2C/C=C\CCN(C2=O)[C@@H](Cc2ccc(C(F)(F)F)cc2)C(=O)N(C)CC(=O)N[C@@H](CCc2ccc(C(F)(F)F)c(OC)c2)C(=O)N2CCOC[C@H]2C(=O)NC2(CC(C)(C)C2)C(=O)N(C)[C@@H](C(CC)CC)C(=O)N(C)[C@H](C(=O)N(C)C)CC(=O)N1C [PP2935]
- HRAS/KRAS (ratio of KD value with respect to GDP-bound HRAS wild-type protein to KD value with respect to KRAS) [1, 7]: A (a compound having 10 or more and less than 20 is denoted as A)
- NRAS/KRAS (ratio of KD value with respect to GDP-bound NRAS wild-type protein to KD value with respect to KRAS) [2, 8]: A (a compound having 10 or more and less than 20 is denoted as A)

Compound: CCO[C@@H]1C[C@H]2C(=O)NC3(CC(C)(C)C3)C(=O)N(C)[C@@H](C(CC)CC)C(=O)N(C)[C@H](C(=O)N(C)C)CC(=O)N(C)[C@@H](CC(C)C)C(=O)N[C@@H]([C@@H](C)CC)C(=O)N(C)CC(=O)N(C)[C@H]3C/C=C\CCN(C3=O)[C@@H](Cc3ccc(C(F)(F)F)cc3)C(=O)N(C)CC(=O)N[C@@H](CCc3ccc(Cl)c(Cl)c3)C(=O)N2C1 [PP2176]
- HRAS/KRAS (ratio of KD value with respect to HRAS to KD value with respect to KRAS) [1, 3]: A (a compound having 10 or more and less than 20 is denoted as A)
- NRAS/KRAS (ratio of KD value with respect to NRAS to KD value with respect to KRAS) [2, 4]: AA (a compound having 20 or more is denoted as AA)

Compound: CCCN1C(=O)CN(C)C(=O)CN(C)C(=O)[C@H]([C@@H](C)CC)NC(=O)[C@H](CC(C)C)N(C)C(=O)C[C@@H](C(=O)N(C)C)N(C)C(=O)[C@H](C2CCCC2)N(C)C(=O)[C@](C)(CCC)NC(=O)[C@@H]2CCCN2C(=O)[C@H](CCc2cc(F)c(C(F)(F)F)c(F)c2)NC(=O)CN(C)C(=O)[C@@H]1Cc1ccc(C(F)(F)F)cc1 [PP0737] ([NMeL]I[Sar][Sar][NPrPhe(4-CF3)][Sar][hPhe(3,5-F2-4-CF3)]P[X13][NMeGly(cPent)][NMeD]-NMe2; lactam N-11)
- HRAS/KRAS (ratio of KD value with respect to GDP-bound HRAS wild-type protein to KD value with respect to KRAS) ([1]; KD ratio HRAS/KRAS, SPR): C (A compound having a KD ratio of 0.1 or more and less than 3 is denoted as C)
- NRAS/KRAS (ratio of KD value with respect to GDP-bound NRAS wild-type protein to KD value with respect to KRAS) ([2]; KD ratio NRAS/KRAS, SPR): B (a compound having 3 or more and less than 10 is denoted as B)

Compound: CCCN(C)C(=O)[C@@H]1CC(=O)N(C)[C@@H](CC(C)C)C(=O)N[C@@H]([C@@H](C)CC)C(=O)N(C)CC(=O)N(C)[C@H]2C/C=C\CCN(C2=O)[C@@H](Cc2ccc(C(F)(F)F)cc2)C(=O)N(C)CC(=O)N[C@@H](CCc2cc(F)c(C(F)(F)F)c(F)c2)C(=O)N2C[C@H](OCC)C[C@H]2C(=O)NC2(CCC2)C(=O)N(C)[C@@H](C2CCCC2)C(=O)N1C [PP1387]
- HRAS/KRAS (ratio of KD value for GDP-bound HRAS wild-type protein to KD value for KRAS) ([1]; SPR, KD ratio class): B (a compound having 3 or more and less than 10 is denoted as B)
- NRAS/KRAS (ratio of KD value for GDP-bound NRAS wild-type protein to KD value for KRAS) ([2]; SPR, KD ratio class): A (a compound having 10 or more and less than 20 is denoted as A)

Compound: CCO[C@@H]1C[C@H]2C(=O)NC3(CCC3)C(=O)N(C)[C@@H](C3CCCC3)C(=O)N(C)[C@H](C(=O)N(C)C)CC(=O)N(C)[C@@H](Cc3cccc(Cl)c3)C(=O)N[C@@H]([C@@H](C)CC)C(=O)N(C)CC(=O)N(C)[C@H]3CCCCCN(C3=O)[C@@H](Cc3ccc(C(F)(F)F)cc3)C(=O)N(C)CC(=O)N[C@@H](CCc3cc(F)c(C(F)(F)F)c(F)c3)C(=O)N2C1 [PP0939]
- HRAS/KRAS (ratio of KD value with respect to HRAS to KD value with respect to KRAS) [1, 5]: B (a compound having 3 or more and less than 10 is denoted as B)
- NRAS/KRAS (ratio of KD value with respect to NRAS to KD value with respect to KRAS) [2, 6]: B (a compound having 3 or more and less than 10 is denoted as B)

Compound: CCOC[C@H]1C(=O)N[C@@H]([C@@H](C)CC)C(=O)N(C)CC(=O)N(C)[C@H]2C/C=C\CCN(C2=O)[C@@H](Cc2ccc(C(F)(F)F)cc2)C(=O)N(C)CC(=O)N[C@@H](CCc2cc(F)c(C(F)(F)F)c(F)c2)C(=O)N2C[C@H](OCC)C[C@H]2C(=O)NC2(CC(C)(C)C2)C(=O)N(C)[C@@H](C2CCCC2)C(=O)N(C)[C@H](C(=O)N(C)CC)CC(=O)N1C [PP2032]
- HRAS/KRAS (ratio of KD value for HRAS to KD value for KRAS) [1, 5]: B (a compound having 3 or more and less than 10 is denoted as B)
- NRAS/KRAS (ratio of KD value for NRAS to KD value for KRAS) [2, 6]: A (a compound having 10 or more and less than 20 is denoted as A)

Compound: CCC(CC)[C@H]1C(=O)N(C)[C@H](C(=O)N(C)C)CC(=O)N(C)[C@@H](COC)C(=O)N[C@@H]([C@@H](C)CC)C(=O)N(C)CC(=O)N(C)[C@H]2C/C=C\CCN(C2=O)[C@@H](Cc2ccc(C)cc2)C(=O)N(C)CC(=O)N[C@@H](CCc2ccc(Cl)c(Cl)c2)C(=O)N2C[C@H](OC(C)C)C[C@H]2C(=O)N(C)C2(CC(C)(C)C2)C(=O)N1C [PP2814]
- HRAS/KRAS (ratio of KD value with respect to GDP-bound HRAS wild-type protein to KD value with respect to KRAS) [1, 7]: A (a compound having 10 or more and less than 20 is denoted as A)
- NRAS/KRAS (ratio of KD value with respect to GDP-bound NRAS wild-type protein to KD value with respect to KRAS) [2, 8]: AA (a compound having 20 or more is denoted as AA)

Compound: CC[C@H](C)[C@@H]1NC(=O)[C@H](CC(C)C)N(C)C(=O)C[C@@H](C(=O)N2CCOCC2)N(C)C(=O)[C@H](C2CCCC2)N(C)C(=O)C2(CCCC2)NC(=O)[C@@H]2CCCN2C(=O)[C@H](CCc2ccc(C(F)(F)F)c(Cl)c2)NC(=O)CN(C)C(=O)[C@H](Cc2ccc(C(F)(F)F)cc2)N2CCCCC[C@@H](C2=O)N(C)C(=O)CN(C)C1=O (stereo in doubt) [PP0319]
- HRAS/KRAS (ratio of KD for GDP-bound HRAS wild-type to KD for KRAS) ([1]; KD ratio HRAS/KRAS, SPR): B (a compound having 3 or more and less than 10 is denoted as B)
- NRAS/KRAS (ratio of KD for GDP-bound NRAS wild-type to KD for KRAS) ([2]; KD ratio NRAS/KRAS, SPR): B (a compound having 3 or more and less than 10 is denoted as B)

Compound: CCC[C@H]1C(=O)N[C@@H]([C@@H](C)CC)C(=O)N(C2CC2)CC(=O)N(C)[C@H]2C/C=C\CCN(C2=O)[C@@H](Cc2ccc(C(F)(F)F)cc2)C(=O)N(C)CC(=O)N[C@@H](CCc2cc(F)c(C(F)(F)F)c(F)c2)C(=O)N2C[C@H](OCC)C[C@H]2C(=O)NC2(CC(C)(C)C2)C(=O)N(C)[C@@H](CC(C)(C)C)C(=O)N(C)[C@H](C(=O)N(C)C)CC(=O)N1C [PP2742]
- HRAS/KRAS (ratio of KD value with respect to GDP-bound HRAS wild-type protein to KD value with respect to KRAS) [1, 7]: A (a compound having 10 or more and less than 20 is denoted as A)
- NRAS/KRAS (ratio of KD value with respect to GDP-bound NRAS wild-type protein to KD value with respect to KRAS) [2, 8]: AA (a compound having 20 or more is denoted as AA)
